Source: PMC6222509, “Dibasic Derivatives of Phenylcarbamic Acid against Mycobacterial Strains: Old Drugs and New Tricks?” (Molecules : A Journal of Synthetic Chemistry and Natural …, 2018)
Values after ≈ are worked out from the molar mass of the structure shown. Read-outs that look alike come from different tables or passages of the source.

What was measured:
[1] = system: M. avium CNCTC My 330/80 (identical with ATCC 25291; MA 330/80); experiment: in vitro antimycobacterial MIC, dilution micromethod in Šula's semisynthetic medium; assay type: cell-based, Mycobacterium avium
[2] = lipophilicity by isocratic RP-HPLC (log k, k, log kw, S); assay type: physicochemical; details: for log kw: extrapolated to 100% water from log k versus ϕM; for S (slope): slope of log k versus ϕM regression
Source text: Octadecyl-functionalized silica gel was currently used as a stationary phase (SPh) and a […] of two solvents at different volume ratios modified retention properties of the SPh. Liquid binary mixtures of methanol (MeOH) with water were employed as mobile phases (MPhs) in the isocratic RP-HPLC. The MeOH modifier was preferred because of similarity of both observed and extrapolated lipophilicity parameters with the ones determined in the octan-1-ol/water partition system, considering also sensitivity to H-bond donor properties of investigated compounds [41].
The modifier was applied in different volume concentrations, which varied from […] (v/v) with 5% increments. This interval was chosen due to very high lipophilicity of investigated salts. Practically, lower volume concentration of MeOH, i.e., less than 85% (v/v) in used MPhs, caused uncertainty of retention times (tr) due to notable peaks broadening, especially within subsets 1i–l and 1m–p. […] The highest tr parameters were found for the molecules 1k (tr = 47.108 min) and 1l (tr = 70.012 min) in the MPh containing 85% proportion (v/v) of MeOH (Table 2).
According to the authors’ opinions based on systematic scientific literature survey, a current research paper was the first, which aimed the log kw parameters of 2-/3-alkoxyphenylcarbamic acid derivatives containing two centers of protonation. The log kw values were extrapolated from intercepts of a relationship between log k and volume fraction of the MPh modifier (ϕM) using the Snyder–Soczewiński linear solvent strength model. The relationship was justified by R > 0.9900, Adj. R^2 > 0.9750 as well as F > 180.00 for calculation of particular log kw parameters (Table 3).
The HPLC separation module Waters e2695 equipped with a Waters 2996 PDA Detector (Waters Corp., Milford, MA, USA) and chromatographic column Symmetry C18 × 5 μm, 4.6 × 250 mm, Part No. W21751W016 (Waters Corp.) were used for estimation of lipophilic properties of the compounds 1a–p at 21 °C.
Isocratic elution was carried out using mobile phases consisting of methanol p.a. (MeOH; Honeywell, Paris, France) and purified water in various volume ratios (80:20, 85:15, 90:10, 95:5 (v/v) and pure MeOH, respectively). Distilled water (CentralChem, Bratislava, Slovak Republic) was purified by the Aquinity2 P10 ultra-pure water system for production of ultra-pure water with an integrated 10 L permeate tank (membraPure, Hennigsdorf, Germany).
Total flow of the column was 1.0 mL/min, injection volume was 4 μL and column temperature was set to 40 °C. The detection wavelengths varying from 236 nm to 238 nm were chosen for current experimental procedures.
Lipophilicity of the compounds 1a–p was determined by reversed-phase high-performance liquid chromatography (RP-HPLC). Methanol (MeOH)/water mobile phases with varying volume ratio of the organic modifier and water (80:20, 85:15, 90:10, 95:5 (v/v) and pure MeOH, respectively) were chosen.
A methanolic solution of potassium iodine was used for dead time (td) determination. Retention factors (capacity factors; k) were calculated according to Equation (17):k = (tr− td)/td(17) where tr was retention time of a solute (in min), the td parameter denoted dead time of potassium iodine, an unretained analyte (in min).
The observed retention (tr) and dead (td) times were means of three independent determinations. Average td values of potassium iodine in used MPhs were as follows: 2.237 min (MeOH/water ratio (v/v) was 80:20), 2.245 min (85:15), 2.245 min (90:10), 2.228 min (95:5) and 2.210 min (pure MeOH), respectively. […]

[3] = mobile phase MeOH/water 80:20 (v/v)
[4] = mobile phase MeOH/water 85:15 (v/v)
[5] = mobile phase MeOH/water 90:10 (v/v)
[6] = mobile phase MeOH/water 95:5 (v/v)
[7] = Mycobacterium avium, ATCC25291, 336 h, read-out: MIC MA 330/80 14-d
[8] = Mycobacterium avium, ATCC25291, 504 h, read-out: MIC MA 330/80 21-d

Structure (SMILES) | MIC ([1]; Mycobacterium avium, ATCC25291, 336 h, 14-day cultivation, read-out: MIC MA 330/80 14-d) | MIC ([1]; Mycobacterium avium, ATCC25291, 504 h, 21-day cultivation, read-out: MIC MA 330/80 21-d) | log kw [2] | k (retention factor) [2, 3] | log k [2, 3] | k (retention factor) [2, 4] | log k [2, 4] | k (retention factor) [2, 5] | log k [2, 5] | k (retention factor) [2, 6] | log k [2, 6] | k (retention factor) ([2]; mobile phase pure MeOH) | log k ([2]; mobile phase pure MeOH) | S (slope) [2] | MIC [1, 7] | MIC [1, 8] | MIC ([1]; 14-day cultivation, read-out: MIC MA 330/80 14-d) | MIC ([1]; 21-day cultivation, read-out: MIC MA 330/80 21-d)
CCCCOc1cccc(NC(=O)OC(CN(CCC)CCC)CN2CCCCCC2)c1 (centres unmarked) [1m] | 16 µM (≈ 7.16 µg/mL) | 32 µM (≈ 14.3 µg/mL) | 4.7099 | 6.0325 | 0.7805 | 3.1060 | 0.4922 | 1.8599 | 0.2695 | 1.1026 | 0.0424 | 0.5922 | −0.2275 | 4.9316 |  |  |  | 
CCCCCOc1cccc(NC(=O)OC(CN(CCC)CCC)CN2CCCCCC2)c1.Cl.Cl (centres unmarked) [1n, 1-[2-[({[3-(pentyloxy)phenyl]amino}carbonyl)oxy]-3-(di-propylammonio)propyl]azepanium dichloride] |  |  | 5.2087 | 8.9166 | 0.9502 | 4.5102 | 0.6542 | 2.6333 | 0.4205 | 1.2419 | 0.0941 | 0.7858 | −0.1047 | 5.3398 | 16 µM | 16 µM |  | 
CCCCCCOc1cccc(NC(=O)OC(CN(CCC)CCC)CN2CCCCCC2)c1.Cl.Cl (centres unmarked) [1o, 1-[2-[({[3-(hexyloxy)phenyl]amino}-carbonyl)oxy]-3-(dipropylammonio)propyl]azepanium dichloride] |  |  | 5.6569 | 12.0420 | 1.0807 | 5.0804 | 0.7059 | 3.2915 | 0.5174 | 1.2868 | 0.1095 | 0.8674 | −0.0618 | 5.7628 | 16 µM | 16 µM |  | 
CCCCCCCOc1cccc(NC(=O)OC(CN(CCC)CCC)CN2CCCCCC2)c1.Cl.Cl (centres unmarked) [1p, 1-[2-[({[3-(heptyloxy)phenyl]amino}carbonyl)-oxy]-3-(dipropylammonio)propyl]azepanium dichloride] |  |  | 6.1749 | 14.0734 | 1.1484 | 6.6298 | 0.8215 | 4.0476 | 0.6072 | 1.6036 | 0.2051 | 0.7759 | −0.1102 | 6.2672 |  |  | 16 µM | 16 µM
